This passage reports MIC results from paper PMC5057115, “Cathelicidins in the Tasmanian devil (Sarcophilus harrisii)” (Scientific Reports, 2016).

Where no end group is shown, it is not given here.

Test [1] concerns L. monocytogenes*. The format is cell-based, Listeria monocytogenes. The conditions noted are these: broth microdilution (CLSI), 64 to 0.125 μg/mL, 24 h at 35 °C with 5% CO2; animal isolate. The protocol: (§1) Tissue expression of devil cathelicidin prepropeptides was determined by real-time PCR on a range of secretory, immune, reproductive, gastrointestinal and respiratory tissues, as well as BLAST searches of the milk transcriptome. Opportunistic tissue samples for real-time PCR were collected from Taronga Zoo (Sydney) from devils which were subject to euthanasia due to old age and advanced disease. The mature peptides of all six devil cathelicidins were synthesised by ChinaPeptides Co. Ltd. and their antimicrobial activity against bacterial and fungal pathogens determined by broth microdilution susceptibility assay according to clinical laboratory standards institute guidelines. Antimicrobial activity was expressed as minimum inhibitory concentration (MIC). Cytotoxicity was assessed in the human cell line A549 and haemolytic activity determined against human blood. Statistical significance of peptide effect on cell survival in comparison to the untreated control was calculated using a one sample t-test. Pouch microbiome analysis was performed on swabs from the pouch of lactating and non-lactating devils to detect changes in microbe populations. […]
(§2) Two antibiotics, ampicillin and tetracycline, were included as a positive control for bacteria, and the antifungal drug fluconazole for fungi. […] Colonies were resuspended in saline and the OD530 measured with a McFarland reader. […] Assays Antimicrobial activity was expressed as minimum inhibitory concentration (MIC), which was defined as the lowest concentration of cathelicidin preventing visible growth, relative to the negative control. […]
(§3) 570nm and 620nm using the Victor 3 multilabel plate reader (PerkinElmer). […] To x i city of cathelicidins was calculated according to Invitrogen recommendations and expressed as percentage cell survival compared to the untreated growth control. […]
(§4) Haemolytic activity was assessed using 10mL of human blood collected into potassium -ED T A vacutainers (BD). […]
A general note: Broth dilution looks for growth in wells or tubes with falling amounts of substance.

For test [2], the system named is E. faecalis ATCC 29212. Briefly: microbe, parasite or virus in culture. Format: cell-based, Enterococcus faecalis. The conditions noted are these: ATCC 29212, 24 h. The protocol: as §1, with “populations. Pouch swab collection was carried out in accordance with the Save the Tasmanian Devil Program and was approved by the Animal Ethics Committee of the University of Sydney (permit number 681).” for “populations.”
(§5) base (YNB) for fungi, from a concentration of 64μg/mL to 0.125μg/mL in a final volume of 100 μL .
(§6) Two antibiotics, ampicillin and tetracycline, were included as a positive control for bacteria, and the antifungal drug fluconazole for fungi. A well containing cells and media only was used as a “no drug” control to ensure that cultures grew normally. Bacteria were subcultured on Mueller Hinton agar (MHA) or Sheep blood agar (BA) for 24 hours at 35 °C for Staphylococcus spp., Pseudomonas spp., Enterococcus spp. and E.coli, with 5% CO2 for Streptococcus spp., K.pneumoniae, P.multocida, L.monocytogenes and N.asteroides. Similarly, fungi were subcultured on Sabouraud agar (SAB) at 35 °C for 24 hours prior to the test. Colonies were resuspended in saline and the OD530 measured with a McFarland reader. If necessary the suspension was diluted to 0.45-0.55 McFarland units with saline. […] Assays Antimicrobial activity was expressed as minimum inhibitory concentration (MIC), which was defined as the lowest concentration of cathelicidin preventing visible growth, relative to the negative control. […]
as §3, §4

The subject of test [3] is S. aureus. Format: cell-based, Staphylococcus aureus. The conditions noted are these: broth microdilution (CLSI), 64 to 0.125 μg/mL, 24 h at 35 °C; human clinical isolate. Here is the method: as §1, with “populations. Pouch swab collection was carried out in accordance with the Save the Tasmanian Devil Program and was approved by the Animal Ethics Committee of the University of Sydney (permit number 681).” for “populations.”
as §5
(§7) Two antibiotics, ampicillin and tetracycline, were included as a positive control for bacteria, and the antifungal drug fluconazole for fungi. A well containing cells and media only was used as a “no drug” control to ensure that cultures grew normally. […] Colonies were resuspended in saline and the OD530 measured with a McFarland reader. […] Assays Antimicrobial activity was expressed as minimum inhibitory concentration (MIC), which was defined as the lowest concentration of cathelicidin preventing visible growth, relative to the negative control. […]
(§8) DMEM and positive control of dimethylsulfoxide (DMSO) (1%) were also included. Following incubation for a further 24 hours, cell viability was determined using alamar blue (Invitrogen) which was added to each well. The plates were incubated for 24 hours, then the absorption measured at 570nm and 620nm using the Victor 3 multilabel plate reader (PerkinElmer). […] To x i city of cathelicidins was calculated according to Invitrogen recommendations and expressed as percentage cell survival compared to the untreated growth control. […]
(§9) Haemolytic activity was assessed using 10mL of human blood collected into potassium -ED T A […]

Test [4] concerns S. pneumoniae ATCC 49619. Briefly: microbe, parasite or virus in culture. The format is cell-based. The conditions noted are these: ATCC 49619, 24 h. Here is the method:
as §1, with “populations. Pouch swab collection was carried out in accordance with the Save the Tasmanian Devil Program and was approved by the Animal Ethics Committee of the University of Sydney (permit number 681).” for “populations.”
as §5
(§10) Two antibiotics, ampicillin and tetracycline, were included as a positive control for bacteria, and the antifungal drug fluconazole for fungi. A well containing cells and media only was used as a “no drug” control to ensure that cultures grew normally. Bacteria were subcultured on Mueller Hinton agar (MHA) or Sheep blood agar (BA) for 24 hours at 35 °C for Staphylococcus spp., Pseudomonas spp., Enterococcus spp. and E.coli, with 5% CO2 for Streptococcus spp., K.pneumoniae, P.multocida, L.monocytogenes and N.asteroides. Similarly, fungi were subcultured on Sabouraud agar (SAB) at 35 °C for 24 hours prior to the test. Colonies were resuspended in saline and the OD530 measured with a McFarland reader. If necessary the suspension was diluted to 0.45-0.55 McFarland units with saline. Following a 1:150 dilution for bacteria and twostep dilution for fungi (1:50, 1:20), 100 μL of microorganisms (1x106 – 5 x10^5 cells/mL) were pipetted into wells 2-12, the first well acting as a negative control. Colony counts were performed using a 1:1000 dilution for bacteria and 1:10 for fungi spread onto MHA/BA or SAB plates respectively. The 96 well microdilution and agar plates were incubated for 24 hours at 35 °C (Escherichia coli, Staphylococcus spp., Enterococcus spp. and Pseudomonas spp.), with 5% CO2 (Streptococcus spp. Pasteurella multocida, Klebsiella pneumoniae, Listeria monocytogenes a nd Nocardia asteroids) for bacteria, and 35 °C for 48 hours (Candida spp .) or 72 hours (Cryptococcus spp.) for fungi. Assays Antimicrobial activity was expressed as minimum inhibitory concentration (MIC), which was defined as the lowest concentration of cathelicidin preventing visible growth, relative to the negative control. […]
(§11) DMEM and positive control of dimethylsulfoxide (DMSO) (1%) were also included. […]
(§12) 570nm and 620nm using the Victor 3 multilabel plate reader (PerkinElmer). The assay was performed on two separate occasions. To x i city of cathelicidins was calculated according to Invitrogen recommendations and expressed as percentage cell survival compared to the untreated growth control. A significant difference between cathelicidin treated and control cell survival was tested using a o ne sample t-test (p<0.05).
(§13) Haemolytic activity was assessed using 10mL of human blood collected into potassium -ED T A vacutainers (BD). The blood was washed three times with 30mL of calcium and magnesium -free Dulbecco’s phosphate buffered saline (DPBS) and cells were collected by centrifugation at 2000 x g […]
(§14) for 10 minutes. […]

Test [5] relates to C. parapsilosis ATCC 22019. Briefly: microbe, parasite or virus in culture. The format is cell-based. The conditions noted are these: broth microdilution (CLSI), YNB, 64 to 0.125 μg/mL, 48 hours at 35 °C; ATCC strain. The protocol:
as §1, with “populations. Pouch swab collection was carried out in accordance with the Save the Tasmanian Devil Program and was approved by the Animal Ethics Committee of the University of Sydney (permit number 681).” for “populations.”
as §5, §10, §11, §12, §13, §14

The test system of test [6] is P. multocida*. Format: cell-based, Pasteurella multocida. The conditions noted are these: broth microdilution (CLSI), 64 to 0.125 μg/mL, 24 h at 35 °C with 5% CO2; animal isolate. Here is the method:
as §1, with “t-test.” for “t-test. Pouch microbiome analysis was performed on swabs from the pouch of lactating and non-lactating devils to detect changes in microbe populations.”
as §2, §8, §9

Test [7] concerns S. salivarius. Format: cell-based. The conditions noted are these: broth microdilution (CLSI), 64 to 0.125 μg/mL, 24 h at 35 °C with 5% CO2; human clinical isolate. The protocol:
as §1, with “populations. Pouch swab collection was carried out in accordance with the Save the Tasmanian Devil Program and was approved by the Animal Ethics Committee of the University of Sydney (permit number 681).” for “populations.”
as §5, §10
(§15) DMEM and positive control of dimethylsulfoxide (DMSO) (1%) were also included. Following incubation for a further 24 hours, cell viability was determined using alamar blue (Invitrogen) which was added to each well. The plates were incubated for 24 hours, then the absorption measured at 570nm and 620nm using the Victor 3 multilabel plate reader (PerkinElmer). The assay was performed on two separate occasions. To x i city of cathelicidins was calculated according to Invitrogen recommendations and expressed as percentage cell survival compared to the untreated growth control. A significant difference between cathelicidin treated and control cell survival was tested using a o ne sample t-test (p<0.05).
as §9
(§16) vacutainers (BD). […]

The subject of test [8] is S. agalactiae ATCC 12386. The format is cell-based. The conditions noted are these: broth microdilution (CLSI), 64 to 0.125 μg/mL, 24 h at 35 °C with 5% CO2; ATCC strain. Here is the method: as §1, with “populations. Pouch swab collection was carried out in accordance with the Save the Tasmanian Devil Program and was approved by the Animal Ethics Committee of the University of Sydney (permit number 681).” for “populations.”
as §5, §10, §15, §9, §16

Test [9] has as its system S. anginosus. Format: cell-based. The conditions noted are these: broth microdilution (CLSI), 64 to 0.125 μg/mL, 24 h at 35 °C with 5% CO2; human clinical isolate. The protocol: as §1, with “populations. Pouch swab collection was carried out in accordance with the Save the Tasmanian Devil Program and was approved by the Animal Ethics Committee of the University of Sydney (permit number 681).” for “populations.”
as §5, §10, §15, §9, §16

Test [10] deals with S. dysgalactiae subs. equisimilis. Format: cell-based. The conditions noted are these: broth microdilution (CLSI), 64 to 0.125 μg/mL, 24 h at 35 °C with 5% CO2; human clinical isolate. Here is the method: as §1, with “populations. Pouch swab collection was carried out in accordance with the Save the Tasmanian Devil Program and was approved by the Animal Ethics Committee of the University of Sydney (permit number 681).” for “populations.”
as §5, §10, §15, §9, §16

For test [11], the system named is K. pneumoniae*. The format is cell-based, Klebsiella pneumoniae. The conditions noted are these: broth microdilution (CLSI), 64 to 0.125 μg/mL, 24 h at 35 °C with 5% CO2; animal isolate. Here is the method: as §1, with “t-test.” for “t-test. Pouch microbiome analysis was performed on swabs from the pouch of lactating and non-lactating devils to detect changes in microbe populations.”
as §2, §8, §9

Test [12] concerns S. aureus ATCC 29213. Briefly: microbe, parasite or virus in culture. Format: cell-based, Staphylococcus aureus. The conditions noted are these: ATCC 29213, 24 h. The protocol: as §1, with “populations. Pouch swab collection was carried out in accordance with the Save the Tasmanian Devil Program and was approved by the Animal Ethics Committee of the University of Sydney (permit number 681).” for “populations.”
as §5, §6, §3, §4

Test [13] concerns E. coli. Format: cell-based, Escherichia coli. The conditions noted are these: broth microdilution (CLSI), 64 to 0.125 μg/mL, 24 h at 35 °C; human clinical isolate. Here is the method: as §1, with “t-test.” for “t-test. Pouch microbiome analysis was performed on swabs from the pouch of lactating and non-lactating devils to detect changes in microbe populations.”
as §2, §8, §9

In test [14] the test system is Methicillin resistant S. aureus (MRSA). The format is cell-based, Staphylococcus aureus. The conditions noted are these: broth microdilution (CLSI), 64 to 0.125 μg/mL, 24 h at 35 °C, human clinical isolate. Here is the method: as §1, with “populations. Pouch swab collection was carried out in accordance with the Save the Tasmanian Devil Program and was approved by the Animal Ethics Committee of the University of Sydney (permit number 681).” for “populations.”
as §5, §7, §8, §9

Turning to “KRMGIFHLFWAGLRKLGNLIKNKIQQGIENFLG [Saha-CATH3]”, the MIC in test [1], in [2], in [3], in test [4], in [5] and in test [6] was >64 µg/mL each time. Moreover, the MIC in test [7], in [8], in [9], in test [10], in test [11] and in test [12] was >64 µg/mL each time. Also, the MIC in test [13] is >64 µg/mL.
Consider “KRIRFFERIRDRLRDLGNRIKNRIRDFFS [Saha-CATH6]”, for which the MIC in test [1] was >64 µg/mL; in [2], >64 µg/mL; in test [3], >64 µg/mL; in test [4] it was 64 µg/mL; in test [5], >64 µg/mL; in test [6], >64 µg/mL. For the same sequence, the MIC in [7] is >64 µg/mL; in test [8], 64 µg/mL; in test [9], 64 µg/mL; in test [10] it was >64 µg/mL; in test [11], >64 µg/mL; in test [12], >64 µg/mL. Also, the MIC in test [13] is >64 µg/mL.
KRIGLIRLIGKILRGLRRLG [Saha-CATH5]: the MIC in test [1] was >64 µg/mL; in test [2], >64 µg/mL; in test [3], 64 µg/mL; in test [14], 32 µg/mL; in test [4], 64 µg/mL; in test [5] it was >64 µg/mL. For the same sequence, the MIC in [6] was >64 µg/mL; in test [7] it was >64 µg/mL; in [8], 64 µg/mL; in test [9], 32 µg/mL; in [10], >64 µg/mL; in test [11] it was >64 µg/mL. Besides, the MIC in test [12] turned out to be 64 µg/mL; in test [13], 32 µg/mL.
